# Assay results from patent publication US9073876B2, “Flap modulators” (JANSSEN PHARMACEUTICA NV, priority 2013, dated 2015).
# Tested on: leukotriene pathway in human whole blood (LTB4 levels)
# Assay: Human whole blood assay (LTB4)
# Format: cell-based
# Conditions: human whole blood diluted 1:1 in RPMI, stimulated with calcium ionophore A23187; single replicate
# Experimental: The ability of the compounds of the present invention to treat a FLAP-mediated disease and/or disorder, or associated symptoms or complications thereof, was determined using the following procedures. Binding assay data represent the average value obtained from two different assay plates, with samples run in duplicate on each plate. Human whole blood assay data represent a single replicate on an assay plate using whole blood from at least one healthy donor.
# An in vitro cellular assay was performed using human whole blood collected in heparin-containing tubes, which was used to test the ability of compounds to modulate the leukotriene pathway in human whole blood. The blood was diluted 1:1 in RPMI medium, pre-incubated for 15 min at 37° Celsius with test compounds at various concentrations, and then stimulated with calcium ionophore, A23187 (7 μg/mL), for 30 min at 37° Celsius. The samples were then centrifuged and plasma was removed. The plasma was diluted in assay buffer and LTB4 levels were measured using a commercial kit (Enzo Life Sciences). The concentration of each compound that was required for half-maximal inhibition (modulation) of recombinant enzyme activity (IC50) was calculated by a 4-parameter equation using the program GraphPad Prism (GraphPad software).
row,IC50 [nM],Compound
1,736,"Nc1cnc(-c2ccc(C3CCC3)c(OCc3cc(Cl)ccc3Cl)c2F)cn1 [Example 38, 5-{4-Cyclobutyl-3-[(2,5-dichlorobenzyl)oxy]-2-fluorophenyl}pyrazin-2-amine]"
2,175,"Nc1cnc(-c2ccc(C3CCC3)c(OCc3nc(C4CC4)no3)c2F)cn1 [Example 48, 5-{4-Cyclobutyl-3-[(3-cyclopropyl-1,2,4-oxadiazol-5-yl)methoxy]-2-fluorophenyl}pyrazin-2-amine]"
3,1150,"CC(C)(C)OC(=O)COc1c(C2CCC2)ccc(-c2cnc(N)cn2)c1F [Example 49, tert-Butyl [3-(5-aminopyrazin-2-yl)-6-cyclobutyl-2-fluorophenoxy]acetate]"
4,413,"Cc1nc(COc2c(C3CCC3)ccc(-c3cnc(N)cn3)c2F)no1 [Example 70, 5-{4-Cyclobutyl-2-fluoro-3-[(5-methyl-1,2,4-oxadiazol-3-yl)methoxy]phenyl}pyrazin-2-amine]"
5,1020,"CCOC(=O)c1ccc(COc2c(C3CCC3)ccc(-c3cnc(N)cn3)c2F)o1 [Example 73, Ethyl 5-{[3-(5-aminopyrazin-2-yl)-6-cyclobutyl-2-fluorophenoxy]methyl}furan-2-carboxylate]"
6,1380,"Nc1cnc(-c2ccc(C3CCC3)c(OCc3cc(S(F)(F)(F)(F)F)ccc3F)c2F)cn1 [Example 77, 5-(4-Cyclobutyl-2-fluoro-3-{[2-fluoro-5-(pentafluoro-lambda~6~- sulfanyl)benzyl]oxy}phenyl)pyrazin-2-amine]"
7,10000,"Nc1cnc(-c2ccc(C3CCC3)c(OCc3ccc(C(=O)O)o3)c2F)cn1 [Example 85, 5-{[3-(5-Aminopyrazin-2-yl)-6-cyclobutyl-2-fluorophenoxy]methyl}furan-2-carboxylic acid]"
8,53.8,"CC(C)c1ccnc(Oc2c(C3CCC3)ccc(-c3cnc(N)cn3)c2F)n1 [Example 90, 5-(4-Cyclobutyl-2-fluoro-3-{[4-(1-methylethyl)pyrimidin-2-yl]oxy}phenyl)pyrazin-2-amine]"
9,6660,"N#Cc1ccnc(Oc2c(C3CCC3)ccc(-c3cnc(N)cn3)c2F)n1 [Example 92, 2-[3-(5-Aminopyrazin-2-yl)-6-cyclobutyl-2-fluorophenoxy]pyrimidine-4-carbonitrile]"
10,375,"N#Cc1ccc(Oc2c(C3CCC3)ccc(-c3cnc(N)cn3)c2F)nc1 [Example 114, 6-[3-(5-Aminopyrazin-2-yl)-6-cyclobutyl-2-fluorophenoxy]pyridine-3-carbonitrile]"
11,503,"CS(=O)(=O)c1ccc(Oc2c(C3CCC3)ccc(-c3cnc(N)cn3)c2F)cc1 [Example 116, 5-{4-Cyclobutyl-2-fluoro-3-[4-(methylsulfonyl)phenoxy]phenyl}pyrazin-2-amine]"
12,12.4,"CC(C)c1nccc(Oc2c(C3CCC3)ccc(-c3cnc(N)cn3)c2F)n1 [Example 135, 5-(4-Cyclobutyl-2-fluoro-3-{[2-(1-methylethyl)pyrimidin-4-yl]oxy}phenyl)pyrazin-2-amine]"
13,170,"NC(=O)c1ccc(Oc2c(C3CCC3)ccc(-c3cnc(N)cn3)c2F)cc1 [Example 155, 4-[3-(5-Aminopyrazin-2-yl)-6-cyclobutyl-2-fluorophenoxy]benzamide]"
14,2370,"COc1c(C2CCC2)ccc(-c2cnc3c(c2)CCN3)c1F [Example 198, 5-(4-cyclobutyl-2-fluoro-3-methoxyphenyl)-2,3-dihydro-1H-pyrrolo[2,3-b]pyridine]"
15,80.5,"CC(C)(C)c1ccc(-c2cnc(N)cn2)c(F)c1Oc1cc(N)ncn1 [Example 202, 6-[3-(5-Aminopyrazin-2-yl)-6-tert-butyl-2-fluorophenoxy]pyrimidin-4-amine]"
16,3480,"N#Cc1nc(-c2ccc(C3CCC3)c(O)c2F)cnc1N [Example 222, 3-amino-6-(4-cyclobutyl-2-fluoro-3-hydroxyphenyl)pyrazine-2-carbonitrile]"
17,480,"COc1cc(Oc2c(C3CCC3)ccc(-c3cnc4[nH]ccc4c3)c2F)ncn1 [Example 228, 5-(4-cyclobutyl-2-fluoro-3-((6-methoxypyrimidin-4-yl)oxy)phenyl)-1H-pyrrolo[2,3-b]pyridine]"
